Tested on: NHKs cells
Test: Western Blot assessment (non-cleaved caspase 3) of UV induced apoptosis after pre-treatment with G01
Assay type: cell-based, human
Conditions: pre-treatment 90 μM 24±2 h; UVA 25 J/cm^2, UVB 80 mJ/cm^2; 24 h
Description: The NHKs cells were plated in the specific culture medium and maintained in culture for 24±2 h to allow adhesion to the plate. Each experimental condition was plated in duplicate. The cells were treated for 24±2 h with the compound G01, in a concentration of 90 μM. Subsequently, the cells identified as +UVA, +G01/UVA, +UVB, and +G01/UVB were respectively exposed, in the irradiation medium, to doses of UVA of 25 J/cm^2 and UVB of 80 mJ/cm^2, while the control plates and those treated only with G01 were maintained in the dark and at room temperature for a period of time equal to the irradiation time. The irradiation medium was then replaced with the culture medium. Based on the preliminary results obtained on a broader time range, a post-treatment time of 24 h was selected, after which the plates were processed for Western Blot protein determination. The protein expression of non-cleaved caspase 3 in each condition tested (treatment with G01 and/or UVA/UVB irradiation) was compared with the expression in the control cells (Ctr).

For `C/C=C/C=C/C=C/C(=O)O` [G01, 2,4,6-trans-octatrienoic acid], the “caspase 3 activation (protein expression of non-cleaved caspase 3)” value was “reduce caspase 3 activation”.
